These results are taken from patent US9757464B2, “Pharmaceutical compositions of dextran polymer derivatives” (Bend Research, Inc., priority 2009, dated 2017).

The nature of series [1]: Tg of amorphous active agent by DSC. In kind it is physicochemical.
Series [2] is described as follows: Syringe dissolution test (in vitro dissolution performance). In kind it is physicochemical. The following applies: pH 7.4 buffer; for Concentration: 50 μg/mL dosed. Here is the method: This solution was adjusted to pH 7.42 by adding sufficient 0.1 N HCl. […] After adding the dispersion and the buffer to the syringe, the syringe was periodically inverted to mix the components in the syringe. The syringe was fitted with a 0.45 μm Supor PES syringe filter (manufacturer, city, state). After 5 minutes, 1 mL of fluid was pushed through the filter into a 2-mL centrifuge tube. A 0.5-mL aliquot of methanol was then added to the centrifuge tube, which was then inverted to mix the contents in the tube, followed by centrifugation at 13,000 rpm for 1 minute. The supernatant was transferred to another centrifuge tube. This procedure was repeated for all timepoints. Samples were frozen in liquid nitrogen and place on a lyophilizer for 3 days to remove all liquids.

`CCC(=O)O[C@]1(C(=O)SCF)[C@H](C)C[C@H]2[C@@H]3C[C@H](F)C4=CC(=O)C=C[C@]4(C)[C@@]3(F)[C@@H](O)C[C@@]21C` [Active Agent 1, S-(fluoromethyl) 6α,9-difluoro-11β,17-dihydroxy-16α-methyl-3-oxoandrosta-1,4-diene-17β-carbothioate, 17-propionate]: the “Tg of amorphous active agent” value in series [1] stood at 84 °C.

In general, Cmax refers to the highest concentration seen after dosing. On to `CCC(=O)O[C@]1(C(=O)SCF)[C@H](C)C[C@H]2[C@@H]3C[C@H](F)C4=CC(=O)C=C[C@]4(C)[C@@]3(F)[C@@H](O)C[C@@]21C` [Control 1], for which the Concentration was 0 ng/mL in series [2] (0 min); 250 ng/mL in series [2] (5 min); 300 ng/mL in series [2] (15 min); 100 ng/mL in series [2] (30 min); 240 ng/mL in series [2] (90 min); 370 ng/mL in series [2] (180 min). This molecule also had a maximum concentration (Cmax) in series [2] (syringe dissolution test) of 370 ng/mL.
